In general, inhibition refers to the drop in the measured response relative to a control, in per cent. Read a low inhibition as a weak effect.

Here are results for 7 molecules from patent publication US4929635A, “New derivatives of 4-vinyl benzoic acid, process for their preparation and their uses in therapeutics and as ligands” (Laboratoires Chauvin-Blache, priority 1984, dated 1990).

This assay concerns the target T1, cytosolic receptor of retinoic acid (C.R.A.B.P.) of rat testicles (Rattus norvegicus, UniProt P62966).
T1 construct: to obtain the cytosol; from tissue; host or cells: rat testicles, 105000×g cytosol
Put plainly: Affinity for the cytosolic receptor of retinoic acid (C.R.A.B.P.) of rat testicles: inhibition of specific linking of tritiated retinoic acid. The class given is binding. The conditions noted are these: ligand 4 μM; tritiated retinoic acid 20 nM; rat testicle cytosol 2 mg/ml; 16 h at 4° C., pH 7.4; unmarked retinoic acid = 100% inhibition. Here is the method: Affinity for the cytosolic receptor of retinoic acid (C.R.A.B.P.) of rat testicles
The affinity of the compounds of the formula I for the C.R.A.B.P. receptor is determined by measurement of the inhibition of the specific linking of tritiated retinoic acid (*AR) by the various compounds according to the method of ONG and CHYTIL (J. Biol. Chem., 1975, 250, 6113) modified:
The rat testicles thawed to 4° C. are placed in Tris-HCl 50 mM, DTE 2 mM buffer, pH 7.4, then ground in a Potter Teflon/glass grinder (three times at 800 rpm). The ground product is centrifuged at 4000×g for 10 min at 4° C.
The supernatant liquor is then centrifuged for 60 min at 105000×g at 4° C. to obtain the cytosol. The final protein concentration of the cytosol is adjusted to 2 mg/ml.
200 μl of cytosol are incubated for 16 h at 4° C. in the presence of tritiated retinoic acid 20 nM (specific activity: 30 Ci/mmole), in the presence of the ligands to be tested at the concentration of 4 μM.
The incubations are followed by treatment with charcoal-dextran (1%-0.0025%) for 30 min at 4° C. The bound radioactivity is determined by counting in liquid scintillation.

T1 sequence (P62966 whole entry): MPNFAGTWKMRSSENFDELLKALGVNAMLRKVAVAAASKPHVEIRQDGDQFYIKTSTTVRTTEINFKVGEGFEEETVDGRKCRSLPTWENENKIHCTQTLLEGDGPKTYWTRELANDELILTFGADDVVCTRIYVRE

Take `C/C(=C\c1ccc(C(=O)O)cc1)c1cccs1` [Compound 9]: the inhibition at 4 µM was 18.5%. On to `C/C(=C\c1ccc(C(=O)O)cc1)c1ccccc1` [Compound 1], for which testing at 4 µM gave an inhibition of 18.9%. `C/C(=C\c1ccc(C(=O)O)cc1)c1ccc(C(C)C)s1` [Compound 14] registered an inhibition at 4 µM of 75%. For `C/C(=C\c1ccc(C(=O)O)cc1)c1ccc(C(C)C)cc1` [Compound 3, (E)-4-[2-(4-isopropylphenyl)propenyl]benzoic acid], testing at 4 µM gave an inhibition of 68.5%. For `C/C(=C\c1ccc(C(=O)O)cc1)c1cc(C(C)C)cs1` [Compound 13], at 4 µM the inhibition was 72.5%. The molecule `C/C(=C\c1ccc(C(=O)N2CCN(C)CC2)cc1)c1ccc(C(C)C)cc1` [Compound 11] registered an inhibition at 4 µM of 27.5%. Under `C/C(=C\c1ccc(C(=O)O)cc1)c1cccc(C(C)C)c1` [Compound 12] stands 67.5%.
